# System: human meltrin α RNA
# Test: Suppression of human meltrin α expression by antisense compound in RD cell (real time PCR)
# Format: cell-based
# Conditions: 50 nM; RD cell; corrected by GAPDH
# Method in brief: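 RD cells transfected with heat-denatured antisense oligodeoxynucleotide plus Lipofectin in Opti-MEM for 4 h at 37° C, then cultured 18 h. Meltrin α RNA quantified by TaqMan RT-PCR against plasmid standard curve, GAPDH-corrected; suppression vs untreated cells, rated +/++/+++ for ≥30/50/70%.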
row,Substance,"suppression rate of expression, 50 nM"
1,"H138: cactcgctgagttgactggg (CACTCGCTGAGTTGACTGGG; antisense; DNA, all phosphorothioate, methylation of C not given here)",++ (“++” when the suppression rate was at least 50%)
2,"H139 + 10: tgcacgtggggcccggtgga (TGCACGTGGGGCCCGGTGGA; antisense; DNA, all phosphorothioate, methylation of C not given here)",+ (“+” when the suppression rate was at least 30%)
3,"H139 + 11: gtgcacgtggggcccggtgg (GTGCACGTGGGGCCCGGTGG; antisense; DNA, all phosphorothioate, methylation of C not given here)",+ (“+” when the suppression rate was at least 30%)
4,"H139 + 12: ggtgcacgtggggcccggtg (GGTGCACGTGGGGCCCGGTG; antisense; DNA, all phosphorothioate, methylation of C not given here)",+ (“+” when the suppression rate was at least 30%)
5,"H139 + 13: aggtgcacgtggggcccggt (AGGTGCACGTGGGGCCCGGT; antisense; DNA, all phosphorothioate, methylation of C not given here)",+ (“+” when the suppression rate was at least 30%)
6,"H139 + 15: ctaggtgcacgtggggcccg (CTAGGTGCACGTGGGGCCCG; antisense; DNA, all phosphorothioate, methylation of C not given here)",+++ (“+++” when the suppression rate was at least 70%)
7,"H139 + 16: gctaggtgcacgtggggccc (GCTAGGTGCACGTGGGGCCC; antisense; DNA, all phosphorothioate, methylation of C not given here)",++ (“++” when the suppression rate was at least 50%)
8,"H139 + 17: cgctaggtgcacgtggggcc (CGCTAGGTGCACGTGGGGCC; antisense; DNA, all phosphorothioate, methylation of C not given here)",+ (“+” when the suppression rate was at least 30%)
9,"H139 + 18: acgctaggtgcacgtggggc (ACGCTAGGTGCACGTGGGGC; antisense; DNA, all phosphorothioate, methylation of C not given here)",++ (“++” when the suppression rate was at least 50%)
10,"H139 + 19: gacgctaggtgcacgtgggg (GACGCTAGGTGCACGTGGGG; antisense; DNA, all phosphorothioate, methylation of C not given here)",+ (“+” when the suppression rate was at least 30%)
11,"H139: gcccggtggaggggaggaag (GCCCGGTGGAGGGGAGGAAG; antisense; DNA, all phosphorothioate, methylation of C not given here)",+ (“+” when the suppression rate was at least 30%)
12,"H140: ggacgctaggtgcacgtggg (GGACGCTAGGTGCACGTGGG; antisense; DNA, all phosphorothioate, methylation of C not given here)",+ (“+” when the suppression rate was at least 30%)
13,"H141 + 15: cctaagtgcaggcttggctg (CCTAAGTGCAGGCTTGGCTG; antisense; DNA, all phosphorothioate, methylation of C not given here)",+ (“+” when the suppression rate was at least 30%)
14,"H142: gcctgcctaagtgcaggctt (GCCTGCCTAAGTGCAGGCTT; antisense; DNA, all phosphorothioate, methylation of C not given here)",++ (“++” when the suppression rate was at least 50%)
15,"H143 + 5: ggggtttggcttacaggtcc (GGGGTTTGGCTTACAGGTCC; antisense; DNA, all phosphorothioate, methylation of C not given here)",++ (“++” when the suppression rate was at least 50%)
16,"H143 + 9: gaggggggtttggcttacag (GAGGGGGGTTTGGCTTACAG; antisense; DNA, all phosphorothioate, methylation of C not given here)",+ (“+” when the suppression rate was at least 30%)
17,"H143 + 10: tgaggggggtttggcttaca (TGAGGGGGGTTTGGCTTACA; antisense; DNA, all phosphorothioate, methylation of C not given here)",+ (“+” when the suppression rate was at least 30%)

row,Substance,"suppression rate of expression, 50 nM"
1,"H143 + 12: tctgaggggggtttggctta (TCTGAGGGGGGTTTGGCTTA; antisense; DNA, all phosphorothioate, methylation of C not given here)",+ (“+” when the suppression rate was at least 30%)
2,"H143 + 14: cttctgaggggggtttggct (CTTCTGAGGGGGGTTTGGCT; antisense; DNA, all phosphorothioate, methylation of C not given here)",+ (“+” when the suppression rate was at least 30%)
3,"H143: ttggcttacaggtcccctgg (TTGGCTTACAGGTCCCCTGG; antisense; DNA, all phosphorothioate, methylation of C not given here)",+ (“+” when the suppression rate was at least 30%)
4,"H144 + 5: gcaggcagaggcttctgagg (GCAGGCAGAGGCTTCTGAGG; antisense; DNA, all phosphorothioate, methylation of C not given here)",++ (“++” when the suppression rate was at least 50%)
5,"H144 + 6: tgcaggcagaggcttctgag (TGCAGGCAGAGGCTTCTGAG; antisense; DNA, all phosphorothioate, methylation of C not given here)",++ (“++” when the suppression rate was at least 50%)
6,"H144 + 7: ctgcaggcagaggcttctga (CTGCAGGCAGAGGCTTCTGA; antisense; DNA, all phosphorothioate, methylation of C not given here)",++ (“++” when the suppression rate was at least 50%)
7,"H144 + 8: tctgcaggcagaggcttctg (TCTGCAGGCAGAGGCTTCTG; antisense; DNA, all phosphorothioate, methylation of C not given here)",+ (“+” when the suppression rate was at least 30%)
8,"H144 + 9: atctgcaggcagaggcttct (ATCTGCAGGCAGAGGCTTCT; antisense; DNA, all phosphorothioate, methylation of C not given here)",+ (“+” when the suppression rate was at least 30%)
9,"H144 + 10: gatctgcaggcagaggcttc (GATCTGCAGGCAGAGGCTTC; antisense; DNA, all phosphorothioate, methylation of C not given here)",+++ (“+++” when the suppression rate was at least 70%)
10,"H144 + 11: ggatctgcaggcagaggctt (GGATCTGCAGGCAGAGGCTT; antisense; DNA, all phosphorothioate, methylation of C not given here)",++ (“++” when the suppression rate was at least 50%)
11,"H144 + 12: aggatctgcaggcagaggct (AGGATCTGCAGGCAGAGGCT; antisense; DNA, all phosphorothioate, methylation of C not given here)",+++ (“+++” when the suppression rate was at least 70%)
12,"H144 + 13: gaggatctgcaggcagaggc (GAGGATCTGCAGGCAGAGGC; antisense; DNA, all phosphorothioate, methylation of C not given here)",++ (“++” when the suppression rate was at least 50%)
13,"H144 + 14: agaggatctgcaggcagagg (AGAGGATCTGCAGGCAGAGG; antisense; DNA, all phosphorothioate, methylation of C not given here)",++ (“++” when the suppression rate was at least 50%)
14,"H144 + 15: cagaggatctgcaggcagag (CAGAGGATCTGCAGGCAGAG; antisense; DNA, all phosphorothioate, methylation of C not given here)",+ (“+” when the suppression rate was at least 30%)
15,"H144 + 16: ccagaggatctgcaggcaga (CCAGAGGATCTGCAGGCAGA; antisense; DNA, all phosphorothioate, methylation of C not given here)",++ (“++” when the suppression rate was at least 50%)
16,"H144 + 17: gccagaggatctgcaggcag (GCCAGAGGATCTGCAGGCAG; antisense; DNA, all phosphorothioate, methylation of C not given here)",+++ (“+++” when the suppression rate was at least 70%)
17,"H144 + 19: tggccagaggatctgcaggc (TGGCCAGAGGATCTGCAGGC; antisense; DNA, all phosphorothioate, methylation of C not given here)",+++ (“+++” when the suppression rate was at least 70%)

# Same assay, conditions: 200 nM; RD cell; corrected by GAPDH
row,Substance,"suppression rate of expression, 200 nM"
1,"H138: cactcgctgagttgactggg (CACTCGCTGAGTTGACTGGG; antisense; DNA, all phosphorothioate, methylation of C not given here)",+++ (“+++” when the suppression rate was at least 70%)
2,"H139: gcccggtggaggggaggaag (GCCCGGTGGAGGGGAGGAAG; antisense; DNA, all phosphorothioate, methylation of C not given here)",+++ (“+++” when the suppression rate was at least 70%)
3,"H140: ggacgctaggtgcacgtggg (GGACGCTAGGTGCACGTGGG; antisense; DNA, all phosphorothioate, methylation of C not given here)",+++ (“+++” when the suppression rate was at least 70%)
4,"H141: ggctggcaggggtctggcag (GGCTGGCAGGGGTCTGGCAG; antisense; DNA, all phosphorothioate, methylation of C not given here)",++ (“++” when the suppression rate was at least 50%)
5,"H142: gcctgcctaagtgcaggctt (GCCTGCCTAAGTGCAGGCTT; antisense; DNA, all phosphorothioate, methylation of C not given here)",++ (“++” when the suppression rate was at least 50%)
6,"H143: ttggcttacaggtcccctgg (TTGGCTTACAGGTCCCCTGG; antisense; DNA, all phosphorothioate, methylation of C not given here)",+++ (“+++” when the suppression rate was at least 70%)
